# Source: ChEMBL document CHEMBL1148822, “Principal component analysis differentiates the receptor binding profiles of three antipsychotic drug candidates from current antipsychotic drugs” (J Med Chem, 2007)
# Active and inactive are the calls of the source. The calls are words filed in the database; no cut-off is given here.
# Legend:
# [1] = molecular target: 5-hydroxytryptamine receptor 2A (Homo sapiens, UniProt P28223); test: biochemical; format: cell-based, CHO
# Description: Displacement of [3H]ketanserin from human 5HT2A receptor expressed in CHO cells
# [2] = molecular target: Sodium-dependent serotonin transporter (Homo sapiens, UniProt P31645); test: biochemical; format: cell-based, HEK293
# Description: Displacement of [3H]paraxetine from human 5HT transporter expressed in HEK293 cells
# [3] = molecular target: T1, Adrenergic receptor alpha-2 (Rattus norvegicus, UniProt P22086+P19328+P22909)
# T1 sequence (P22086 whole entry): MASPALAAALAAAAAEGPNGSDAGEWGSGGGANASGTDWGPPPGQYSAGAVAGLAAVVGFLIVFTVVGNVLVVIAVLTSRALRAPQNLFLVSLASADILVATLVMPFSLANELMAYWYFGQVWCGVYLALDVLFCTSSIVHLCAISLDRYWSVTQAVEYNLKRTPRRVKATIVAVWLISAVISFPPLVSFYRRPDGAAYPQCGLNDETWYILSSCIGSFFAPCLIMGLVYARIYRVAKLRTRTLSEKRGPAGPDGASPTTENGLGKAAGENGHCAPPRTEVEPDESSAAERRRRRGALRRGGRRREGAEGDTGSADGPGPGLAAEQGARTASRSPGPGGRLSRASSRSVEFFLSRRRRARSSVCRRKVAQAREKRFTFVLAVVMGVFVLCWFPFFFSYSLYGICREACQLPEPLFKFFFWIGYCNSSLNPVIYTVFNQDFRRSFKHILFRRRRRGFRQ
# T1 sequence (P19328 whole entry): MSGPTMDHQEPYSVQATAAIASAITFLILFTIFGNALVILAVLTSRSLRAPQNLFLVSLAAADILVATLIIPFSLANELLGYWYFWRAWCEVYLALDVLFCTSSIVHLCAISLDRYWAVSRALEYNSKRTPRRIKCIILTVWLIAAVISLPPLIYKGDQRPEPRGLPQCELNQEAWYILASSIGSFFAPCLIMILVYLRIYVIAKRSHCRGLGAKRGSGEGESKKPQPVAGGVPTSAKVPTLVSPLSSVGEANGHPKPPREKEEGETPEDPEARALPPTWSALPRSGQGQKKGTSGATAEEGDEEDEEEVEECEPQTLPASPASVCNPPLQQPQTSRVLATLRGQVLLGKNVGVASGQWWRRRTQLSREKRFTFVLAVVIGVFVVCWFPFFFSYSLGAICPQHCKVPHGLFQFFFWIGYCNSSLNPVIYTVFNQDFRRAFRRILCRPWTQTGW
# T1 sequence (P22909 whole entry): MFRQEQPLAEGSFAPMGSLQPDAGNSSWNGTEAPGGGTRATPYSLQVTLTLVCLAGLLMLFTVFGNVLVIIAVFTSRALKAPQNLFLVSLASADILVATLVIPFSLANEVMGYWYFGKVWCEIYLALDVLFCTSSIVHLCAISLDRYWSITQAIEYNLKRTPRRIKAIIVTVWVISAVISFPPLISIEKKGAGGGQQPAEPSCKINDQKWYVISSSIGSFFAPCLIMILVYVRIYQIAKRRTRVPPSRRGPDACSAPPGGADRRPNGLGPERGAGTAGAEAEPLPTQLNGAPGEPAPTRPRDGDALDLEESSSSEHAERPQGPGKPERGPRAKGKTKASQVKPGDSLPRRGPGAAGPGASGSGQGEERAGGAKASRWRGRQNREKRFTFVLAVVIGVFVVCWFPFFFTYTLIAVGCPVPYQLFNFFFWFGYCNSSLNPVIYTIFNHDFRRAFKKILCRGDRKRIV
# Description: Displacement of [3H]RX 821002 from adrenergic alpha-2 receptor in rat cerebral cortex
# [4] = molecular target: T2, D(4) dopamine receptor (Homo sapiens, UniProt P21917); test: biochemical
# T2 sequence (P21917 whole entry): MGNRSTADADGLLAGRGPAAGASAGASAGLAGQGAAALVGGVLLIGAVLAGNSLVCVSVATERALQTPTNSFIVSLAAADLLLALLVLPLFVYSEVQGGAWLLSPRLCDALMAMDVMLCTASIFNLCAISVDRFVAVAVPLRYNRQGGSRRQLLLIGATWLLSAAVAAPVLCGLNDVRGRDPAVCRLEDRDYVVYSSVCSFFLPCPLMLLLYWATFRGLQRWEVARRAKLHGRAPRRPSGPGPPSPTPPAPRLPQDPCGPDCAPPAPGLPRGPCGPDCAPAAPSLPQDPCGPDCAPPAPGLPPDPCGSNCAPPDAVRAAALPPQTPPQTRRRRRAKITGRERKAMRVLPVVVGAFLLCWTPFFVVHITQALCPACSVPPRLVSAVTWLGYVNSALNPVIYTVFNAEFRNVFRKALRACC
# Description: Displacement of [3H]spiperone from human dopamine D4.4 receptor expressed in CHO cells
# [5] = molecular target: D(3) dopamine receptor (Homo sapiens, UniProt P35462); test: biochemical
# Description: Displacement of [3H]spiperone from human dopamine D3 receptor expressed in CHO cells
# [6] = molecular target: T3, 5-hydroxytryptamine receptor 1A (Homo sapiens, UniProt P08908); test: biochemical
# T3 sequence (P08908 whole entry): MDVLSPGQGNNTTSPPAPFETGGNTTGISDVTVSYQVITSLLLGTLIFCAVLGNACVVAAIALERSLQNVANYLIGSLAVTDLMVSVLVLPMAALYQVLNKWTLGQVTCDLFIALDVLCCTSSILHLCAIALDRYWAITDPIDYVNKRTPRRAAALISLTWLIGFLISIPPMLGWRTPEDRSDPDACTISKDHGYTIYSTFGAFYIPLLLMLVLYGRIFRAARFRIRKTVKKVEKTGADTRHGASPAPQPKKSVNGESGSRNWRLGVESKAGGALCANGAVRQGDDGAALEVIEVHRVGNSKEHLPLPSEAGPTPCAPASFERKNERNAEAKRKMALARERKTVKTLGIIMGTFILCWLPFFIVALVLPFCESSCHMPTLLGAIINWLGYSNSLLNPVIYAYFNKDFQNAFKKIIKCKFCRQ
# Description: Displacement of [3H]8-OH-DPAT from human 5HT1A receptor expressed in CHO cells
# [7] = molecular target: T4, 5-hydroxytryptamine receptor 2B (Homo sapiens, UniProt P41595); test: biochemical
# Description: (§1) Displacement of [3H]LSD from 5HT2B receptor expressed in CHO cells
# [8] = molecular target: T5, 5-hydroxytryptamine receptor 2C (Homo sapiens, UniProt P28335); test: biochemical
# T5 sequence (P28335 whole entry): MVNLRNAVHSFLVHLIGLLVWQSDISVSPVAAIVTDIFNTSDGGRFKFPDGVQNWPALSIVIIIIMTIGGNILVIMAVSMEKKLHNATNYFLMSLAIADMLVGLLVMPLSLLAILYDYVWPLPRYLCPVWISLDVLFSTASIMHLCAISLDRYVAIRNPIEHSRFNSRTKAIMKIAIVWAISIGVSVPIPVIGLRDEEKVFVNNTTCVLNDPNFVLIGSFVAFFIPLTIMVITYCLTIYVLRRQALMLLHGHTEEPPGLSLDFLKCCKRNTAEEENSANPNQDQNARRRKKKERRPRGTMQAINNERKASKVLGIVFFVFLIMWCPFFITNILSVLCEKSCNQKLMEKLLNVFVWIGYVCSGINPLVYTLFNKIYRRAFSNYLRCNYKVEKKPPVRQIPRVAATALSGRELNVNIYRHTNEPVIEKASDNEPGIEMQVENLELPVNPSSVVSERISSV
# Description: (§2) Displacement of [3H]mesulergine from 5HT2C receptor expressed in CHO cells
# [9] = molecular target: T6, 5-hydroxytryptamine receptor 6 (Homo sapiens, UniProt P50406); test: biochemical
# Description: (§3) Displacement of [3H]LSD from human 5HT6 receptor expressed in HEK293 cells
# [10] = molecular target: 5-hydroxytryptamine receptor 7 (Homo sapiens, UniProt P34969); test: biochemical
# Description: Displacement of [3H]LSD from human 5HT7 receptor expressed in CHO cells
# [11] = molecular target: Histamine H1 receptor (Cavia porcellus, UniProt P31389); test: biochemical
# Description: (§4) Displacement of [3H]pyrilamine from histaminergic H1 receptor guinea pig cerebellum
# [12] = molecular target: T7, 5-hydroxytryptamine receptor 2C (Homo sapiens) (UniProt P28335); conditions: CHO
# T7 sequence (whole entry): T5 sequence (P28335 whole entry)
# Description: as §2
# [13] = molecular target: T6, 5-hydroxytryptamine receptor 6; conditions: HEK293
# Description: as §3
# [14] = molecular target: Histamine H1 receptor (Cavia porcellus) (UniProt P31389); conditions: Cerebellum
# Description: as §4
# [15] = molecular target: T4, 5-hydroxytryptamine receptor 2B; conditions: CHO
# Description: as §1
# [16] = molecular target: Serotonin 3 (5-HT3) receptor; conditions: hek293
# Description: Displacement of [3H]BLR-43694 from human 5HT3 receptor expressed in HEK293 cells
# [17] = molecular target: T8, Adrenergic receptor alpha-1 (Rattus norvegicus, UniProt P15823+P23944+P43140)
# T8 sequence (P15823 whole entry): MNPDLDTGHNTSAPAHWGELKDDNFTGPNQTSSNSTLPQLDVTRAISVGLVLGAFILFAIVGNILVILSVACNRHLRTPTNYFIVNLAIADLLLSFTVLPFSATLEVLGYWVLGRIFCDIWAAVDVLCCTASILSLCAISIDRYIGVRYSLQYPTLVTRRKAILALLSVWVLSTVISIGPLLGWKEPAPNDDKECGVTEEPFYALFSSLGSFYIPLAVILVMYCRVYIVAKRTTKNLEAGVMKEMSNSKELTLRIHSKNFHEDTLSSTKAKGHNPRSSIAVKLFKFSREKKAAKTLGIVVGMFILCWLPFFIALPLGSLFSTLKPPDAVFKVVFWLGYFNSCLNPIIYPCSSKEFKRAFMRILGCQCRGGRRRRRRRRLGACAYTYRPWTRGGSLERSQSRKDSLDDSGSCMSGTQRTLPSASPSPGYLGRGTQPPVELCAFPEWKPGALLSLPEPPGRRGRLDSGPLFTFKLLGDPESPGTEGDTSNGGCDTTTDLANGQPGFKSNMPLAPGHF
# T8 sequence (P23944 whole entry): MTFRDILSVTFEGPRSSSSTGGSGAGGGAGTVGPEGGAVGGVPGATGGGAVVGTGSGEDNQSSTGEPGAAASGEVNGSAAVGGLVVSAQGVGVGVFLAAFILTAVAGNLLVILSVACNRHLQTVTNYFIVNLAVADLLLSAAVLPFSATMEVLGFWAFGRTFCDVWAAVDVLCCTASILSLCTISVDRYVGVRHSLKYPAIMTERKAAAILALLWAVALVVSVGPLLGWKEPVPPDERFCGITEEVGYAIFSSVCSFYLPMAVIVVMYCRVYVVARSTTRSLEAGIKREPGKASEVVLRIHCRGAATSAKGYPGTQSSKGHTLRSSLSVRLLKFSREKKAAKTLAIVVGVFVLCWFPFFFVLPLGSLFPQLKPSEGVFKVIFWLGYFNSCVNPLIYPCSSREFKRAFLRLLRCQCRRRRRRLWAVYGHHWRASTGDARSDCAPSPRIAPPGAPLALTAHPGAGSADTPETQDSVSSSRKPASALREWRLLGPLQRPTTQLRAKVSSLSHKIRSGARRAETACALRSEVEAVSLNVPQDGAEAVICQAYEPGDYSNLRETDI
# T8 sequence (P43140 whole entry): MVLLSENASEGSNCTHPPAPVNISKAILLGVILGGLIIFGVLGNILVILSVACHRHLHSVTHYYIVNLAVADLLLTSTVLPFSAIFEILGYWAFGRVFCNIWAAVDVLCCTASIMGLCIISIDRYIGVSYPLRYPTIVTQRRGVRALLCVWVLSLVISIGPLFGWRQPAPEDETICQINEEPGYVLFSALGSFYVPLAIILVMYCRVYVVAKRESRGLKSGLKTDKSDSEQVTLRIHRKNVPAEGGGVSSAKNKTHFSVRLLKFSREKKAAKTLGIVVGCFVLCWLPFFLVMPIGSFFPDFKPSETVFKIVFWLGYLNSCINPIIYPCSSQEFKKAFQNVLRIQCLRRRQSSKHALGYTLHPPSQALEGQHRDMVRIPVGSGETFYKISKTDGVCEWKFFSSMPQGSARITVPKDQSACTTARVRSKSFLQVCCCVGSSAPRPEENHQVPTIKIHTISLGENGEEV
# Description: Displacement of [3H]prazosin from adrenergic alpha1 receptor in rat cerebral cortex
# T6 sequence (P50406 whole entry): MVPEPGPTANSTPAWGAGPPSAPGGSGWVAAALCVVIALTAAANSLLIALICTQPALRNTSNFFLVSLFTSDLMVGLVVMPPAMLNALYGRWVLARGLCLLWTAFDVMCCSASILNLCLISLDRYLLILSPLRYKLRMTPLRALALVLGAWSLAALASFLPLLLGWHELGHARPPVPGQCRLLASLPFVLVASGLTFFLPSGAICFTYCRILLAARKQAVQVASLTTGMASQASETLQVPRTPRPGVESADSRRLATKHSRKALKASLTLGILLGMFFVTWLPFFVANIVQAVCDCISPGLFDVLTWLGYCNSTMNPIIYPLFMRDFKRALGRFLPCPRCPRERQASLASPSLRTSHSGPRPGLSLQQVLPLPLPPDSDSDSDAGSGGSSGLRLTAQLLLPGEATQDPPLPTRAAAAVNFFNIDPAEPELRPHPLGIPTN
# T4 sequence (P41595 whole entry): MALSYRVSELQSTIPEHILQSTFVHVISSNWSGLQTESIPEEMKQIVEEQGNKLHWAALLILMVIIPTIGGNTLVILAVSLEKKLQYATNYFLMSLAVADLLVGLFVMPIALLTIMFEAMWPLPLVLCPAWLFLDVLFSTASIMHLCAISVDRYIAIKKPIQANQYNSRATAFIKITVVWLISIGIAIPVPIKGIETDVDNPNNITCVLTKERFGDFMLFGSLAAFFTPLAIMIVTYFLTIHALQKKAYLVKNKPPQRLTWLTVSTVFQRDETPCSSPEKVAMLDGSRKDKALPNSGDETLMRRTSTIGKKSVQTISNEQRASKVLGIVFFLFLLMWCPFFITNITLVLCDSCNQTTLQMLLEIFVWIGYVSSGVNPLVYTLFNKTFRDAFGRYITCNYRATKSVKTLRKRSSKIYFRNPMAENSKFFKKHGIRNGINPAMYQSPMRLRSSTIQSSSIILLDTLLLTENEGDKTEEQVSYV
# Histamine H1 receptor, sequence (P31389 whole entry): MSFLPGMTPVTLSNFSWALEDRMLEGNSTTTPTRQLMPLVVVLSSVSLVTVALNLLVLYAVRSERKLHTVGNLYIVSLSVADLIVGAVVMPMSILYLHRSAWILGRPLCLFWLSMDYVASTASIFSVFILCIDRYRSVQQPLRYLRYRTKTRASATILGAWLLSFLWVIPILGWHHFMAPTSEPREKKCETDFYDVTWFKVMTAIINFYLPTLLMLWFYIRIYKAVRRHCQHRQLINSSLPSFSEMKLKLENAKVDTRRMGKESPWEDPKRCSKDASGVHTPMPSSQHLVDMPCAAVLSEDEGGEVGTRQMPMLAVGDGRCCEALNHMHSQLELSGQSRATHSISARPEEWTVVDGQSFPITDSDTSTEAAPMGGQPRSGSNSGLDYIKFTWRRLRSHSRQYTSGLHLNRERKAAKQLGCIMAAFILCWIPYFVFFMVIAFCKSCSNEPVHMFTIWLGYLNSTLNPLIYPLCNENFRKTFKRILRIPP
# 5-hydroxytryptamine receptor 7, sequence (P34969 whole entry): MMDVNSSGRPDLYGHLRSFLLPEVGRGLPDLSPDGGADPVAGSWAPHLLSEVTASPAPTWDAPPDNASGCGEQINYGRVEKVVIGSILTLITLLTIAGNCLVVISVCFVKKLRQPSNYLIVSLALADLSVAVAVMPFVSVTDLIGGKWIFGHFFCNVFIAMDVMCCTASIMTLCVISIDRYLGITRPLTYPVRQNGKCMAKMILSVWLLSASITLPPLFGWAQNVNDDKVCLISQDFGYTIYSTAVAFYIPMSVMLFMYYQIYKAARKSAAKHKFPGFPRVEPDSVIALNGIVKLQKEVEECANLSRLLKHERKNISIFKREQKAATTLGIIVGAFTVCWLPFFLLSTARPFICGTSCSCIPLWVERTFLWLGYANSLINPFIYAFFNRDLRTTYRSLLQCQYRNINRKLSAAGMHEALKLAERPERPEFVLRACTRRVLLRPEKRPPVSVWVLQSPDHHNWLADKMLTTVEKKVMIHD
# Sodium-dependent serotonin transporter, sequence (P31645 whole entry): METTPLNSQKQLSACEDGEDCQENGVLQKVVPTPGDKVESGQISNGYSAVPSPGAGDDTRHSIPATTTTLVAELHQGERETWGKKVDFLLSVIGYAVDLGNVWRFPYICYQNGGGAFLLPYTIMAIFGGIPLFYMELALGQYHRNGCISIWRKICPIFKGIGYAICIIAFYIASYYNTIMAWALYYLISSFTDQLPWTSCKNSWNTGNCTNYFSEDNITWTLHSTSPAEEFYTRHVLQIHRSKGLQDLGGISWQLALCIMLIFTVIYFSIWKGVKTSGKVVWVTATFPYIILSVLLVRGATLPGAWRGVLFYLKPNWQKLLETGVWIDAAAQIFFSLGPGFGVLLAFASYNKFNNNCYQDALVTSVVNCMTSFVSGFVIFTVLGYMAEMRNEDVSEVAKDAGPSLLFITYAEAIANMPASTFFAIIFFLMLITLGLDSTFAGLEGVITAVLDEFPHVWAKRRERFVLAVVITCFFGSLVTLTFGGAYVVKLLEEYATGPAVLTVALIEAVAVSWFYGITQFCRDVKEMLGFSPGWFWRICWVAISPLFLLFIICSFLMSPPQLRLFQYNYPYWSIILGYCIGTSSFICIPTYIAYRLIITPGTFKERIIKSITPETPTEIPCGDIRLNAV
# 5-hydroxytryptamine receptor 2A, sequence (P28223 whole entry): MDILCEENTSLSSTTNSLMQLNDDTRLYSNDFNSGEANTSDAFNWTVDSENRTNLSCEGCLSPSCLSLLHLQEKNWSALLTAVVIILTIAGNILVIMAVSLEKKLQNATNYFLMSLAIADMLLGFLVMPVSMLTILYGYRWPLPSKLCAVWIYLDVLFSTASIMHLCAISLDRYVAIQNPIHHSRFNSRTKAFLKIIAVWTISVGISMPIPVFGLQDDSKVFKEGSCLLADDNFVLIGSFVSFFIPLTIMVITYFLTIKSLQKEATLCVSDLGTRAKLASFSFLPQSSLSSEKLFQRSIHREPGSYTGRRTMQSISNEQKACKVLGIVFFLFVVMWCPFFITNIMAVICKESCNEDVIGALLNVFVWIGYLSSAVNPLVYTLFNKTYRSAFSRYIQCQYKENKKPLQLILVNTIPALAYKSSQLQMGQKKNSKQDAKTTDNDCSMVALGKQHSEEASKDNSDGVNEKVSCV
# Histamine H1 receptor (Cavia porcellus), sequence (P31389 whole entry): as the sequence (P31389 whole entry) above
# D(3) dopamine receptor, sequence (P35462 whole entry): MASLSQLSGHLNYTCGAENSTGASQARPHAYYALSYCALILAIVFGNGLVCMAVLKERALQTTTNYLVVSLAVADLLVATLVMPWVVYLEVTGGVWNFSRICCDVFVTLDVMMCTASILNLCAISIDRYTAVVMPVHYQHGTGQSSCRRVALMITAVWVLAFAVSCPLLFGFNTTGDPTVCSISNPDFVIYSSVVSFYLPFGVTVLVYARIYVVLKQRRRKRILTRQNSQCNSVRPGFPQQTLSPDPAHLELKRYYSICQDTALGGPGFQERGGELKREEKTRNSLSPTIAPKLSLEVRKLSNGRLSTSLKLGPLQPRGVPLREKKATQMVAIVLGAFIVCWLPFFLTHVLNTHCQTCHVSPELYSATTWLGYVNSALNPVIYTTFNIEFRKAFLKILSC
SMILES,Ki [6] [nM],Ki [7] [nM],Ki [10] [nM],Ki [11] [nM],Activity [12],Activity [13],Log Ki [17],also measured
O=C1c2ccccc2C(=O)N1CCCCN1CC=C(c2c[nH]c3ccc(F)cc23)CC1,2.51,1.58,100,31.6,–,–,–,Ki [1]: 100 nM; Ki [2]: 0.794 nM; Log Ki [3]: -6.6; Ki [4]: 79.4 nM; Ki [5]: 0.794 nM; Ki [8]: 39.8 nM; Ki [9]: 398 nM
CCN1CCCC1CNC(=O)c1cc(S(=O)(=O)CC)c(N)cc1OC (stereo not given) [AMISULPRIDE],–,–,–,–,inactive,inactive,–,Log Ki [3]: -6.9; Activity [14]: inactive
Cc1nc2n(c(=O)c1CCN1CCC(c3noc4cc(F)ccc34)CC1)CCCC2,–,–,–,–,–,inactive,–,–
O=C(CCCN1CCC(O)(c2ccc(Cl)cc2)CC1)c1ccc(F)cc1,–,–,–,–,inactive,inactive,–,Activity [15]: inactive
OCCOCCN1CCN(C2=Nc3ccccc3Sc3ccccc32)CC1 [QUETIAPINE],–,–,–,–,inactive,inactive,–,–
O=C1Cc2cc(CCN3CCN(c4nsc5ccccc45)CC3)c(Cl)cc2N1 [ZIPRASIDONE],1.58,1.58,5.01,15.8,–,–,-8.1,Log Ki [16]: -6.4; Ki [9]: 63.1 nM
Fc1ccc(-c2cncc(CN3CCN(c4cccc5c4OCCO5)CC3)c2)cc1 [ADOPRAZINE],–,12.6,–,–,inactive,inactive,-6.3,Activity [14]: inactive
Cc1cc2c(s1)Nc1ccccc1N=C2N1CCN(C)CC1 [OLANZAPINE],–,–,–,–,–,–,–,Log Ki [16]: -6.7
C[C@H]1Oc2c(cccc2N2CCN(CCCc3c[nH]c4ccc(F)cc34)CC2)NC1=O,5.01,1,7.94,126,–,inactive,-7.8,Ki [1]: 20 nM; Ki [2]: 0.251 nM; Ki [4]: 1.58 nM; Ki [5]: 0.501 nM; Ki [8]: 200 nM
